Laboratory results from patent US20230183193A1, “4-DIFLUOROMETHYL BENZOYL AMIDES WITH HERBICIDAL ACTION” (BAYER CROPSCIENCE AKTIENGESELLSCHAFT, priority 2017, published 2023).

Assays:
Assay type in all cases: in vivo
[1] = test system: Matricaria inodora; experiment: Pre-emergence herbicidal action, MATIN; details: dosage 320 g/ha, scored visually after 3 weeks vs untreated controls
In short: (§1)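 Weed seeds were laid out in sandy loam and covered with soil, then the soil surface was treated with an aqueous suspension or emulsion of the formulated compound containing 0.2% wetting agent. Pots stayed in the greenhouse for 3 weeks before damage was rated visually against untreated plants.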

[2] = test system: Alopecurus myosuroides; experiment: Pre-emergence herbicidal action, ALOMY; details: dosage 320 g/ha, scored visually after 3 weeks vs untreated controls
In short: as §1

[3] = test system: Avena fatua; experiment: Post-emergence herbicidal action, AVEFA; details: 80 g/ha, Table C
In short: (§2)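 Greenhouse-grown weeds in sandy loam, treated at the one-leaf stage 2 to 3 weeks after sowing with WP or EC formulations sprayed as aqueous suspension/emulsion at 600 to […] water plus 0.2% wetting agent. Visual scoring after about 3 weeks versus untreated controls, 0% (like control) to 100% (plants dead).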

[4] = test system: Setaria viridis; experiment: Post-emergence herbicidal action, SETVI; details: 80 g/ha, Table C
In short: as §2

[5] = test system: Abutilon theophrasti; experiment: Pre-emergence herbicidal action, ABUTH; details: dosage 320 g/ha, scored visually after 3 weeks vs untreated controls
In short: as §1

[6] = test system: Viola tricolor; experiment: Post-emergence herbicidal action, VIOTR; details: 80 g/ha, Table D
In short: as §2

[7] = test system: Abutilon theophrasti; experiment: Post-emergence herbicidal action, ABUTH; details: 80 g/ha, Table D
In short: as §2

[8] = test system: Setaria viridis; experiment: Pre-emergence herbicidal action, SETVI; details: dosage 320 g/ha, scored visually after 3 weeks vs untreated controls
In short: as §1

[9] = test system: Amaranthus retroflexus; experiment: Post-emergence herbicidal action, AMARE; details: 80 g/ha, Table D
In short: as §2

[10] = test system: Pharbitis purpureum; experiment: Post-emergence herbicidal action, PHBPU; details: 80 g/ha, Table D
In short: as §2

[11] = test system: Stellaria media; experiment: Pre-emergence herbicidal action, STEME; details: dosage 320 g/ha, scored visually after 3 weeks vs untreated controls
In short: as §1

[12] = test system: Avena fatua; experiment: Pre-emergence herbicidal action, AVEFA; details: dosage 320 g/ha, scored visually after 3 weeks vs untreated controls
In short: as §1

[13] = test system: Alopecurus myosuroides; experiment: Post-emergence herbicidal action, ALOMY; details: 80 g/ha, Table C
In short: as §2

[14] = test system: Cyperus serotinus; experiment: Pre-emergence herbicidal action, CYPES; details: dosage 320 g/ha, scored visually after 3 weeks vs untreated controls
In short: as §1

[15] = test system: ECHCG; experiment: Post-emergence herbicidal action, ECHCG; details: 80 g/ha, Table C
In short: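 Weed and crop plants grown in sandy loam in the greenhouse, treated at the one-leaf stage 2–3 weeks after sowing. Damage scored visually after about 3 weeks vs untreated controls (0% = control, 100% = dead).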

[16] = test system: Stellaria media; experiment: Post-emergence herbicidal action, STEME; details: 80 g/ha, Table D
In short: as §2

[17] = test system: Viola tricolor; experiment: Pre-emergence herbicidal action, VIOTR; details: dosage 320 g/ha, scored visually after 3 weeks vs untreated controls
In short: as §1

[18] = test system: Amaranthus retroflexus; experiment: Pre-emergence herbicidal action, AMARE; details: dosage 320 g/ha, scored visually after 3 weeks vs untreated controls
In short: as §1

Structure (SMILES)	herbicidal activity MATIN [1] [%]	herbicidal activity ALOMY [2] [%]	herbicidal activity AVEFA [3] [%]	herbicidal activity SETVI [4] [%]	herbicidal activity ABUTH [5] [%]	herbicidal activity VIOTR [6] [%]	herbicidal activity ABUTH [7] [%]	herbicidal activity SETVI [8] [%]	herbicidal activity AMARE [9] [%]	Herbicidal activity PHBPU [10] [%]	Herbicidal activity STEME [11] [%]	herbicidal activity AVEFA [12] [%]	herbicidal activity ALOMY [13] [%]	herbicidal activity CYPES [14] [%]	Herbicidal activity ECHCG [15] [%]	Herbicidal activity STEME [16] [%]	herbicidal activity VIOTR [17] [%]	herbicidal activity AMARE [18] [%]
CSc1c(C(F)F)ccc(C(=O)Nc2nnnn2C)c1F [Example 1-37]	100	100	100	100	100	100	90	100	100	90	100	100	80	100	100	100	100	100
CSc1c(C(F)F)ccc(C(=O)Nc2nnnn2C)c1Br [Example 1-61]	100	100	100	90	100	100	100	100	90	100	100	100	90	100	90	100	100	100
CCc1c(C(=O)Nc2nnnn2C)ccc(C(F)F)c1SC [Example 1-13]	100	100	100	90	100	100	100	100	100	100	100	100	90	100	90	100	100	100
Cn1nnnc1NC(=O)c1ccc(C(F)F)c(S(C)(=O)=O)c1F [Example 1-39]	100	90	80	100	100	100	90	100	100	100	100	100	90	90	90	100	100	100
CCc1c(C(=O)Nc2nnnn2C)ccc(C(F)F)c1S(C)(=O)=O [Example 1-15]	100	100	100	80	100	100	90	100	100	90	100	100	90	100	90	100	100	100
CCn1nnnc1NC(=O)c1ccc(C(F)F)c([S+]([O-])CC)c1C1CC1 (stereo not drawn) [Example 2-29]	100	100	90	100	100	100	100	100	100	90	100	100	100	90	100	100	100	100
CCc1c(C(=O)Nc2nnnn2CC)ccc(C(F)F)c1S(=O)(=O)CC [Example 2-18]	100	100	100	90	100	100	100	100	100	100	100	100	80	90	90	100	100	100
CCSc1c(C(F)F)ccc(C(=O)Nc2nnnn2C)c1Cl [Example 1-52]	100	100	100	90	100	100	100	100	100	100	100	100	100	90	90	100	100	100
